Measured values as given in patent US8076487B2, “Pyridone derivative and herbicide” (Kumiai Chemical Industry Co., Ltd., priority 2006, dated 2011).

How the values were obtained:
Type in all cases: in vivo
[1] = test system: Japanese bulrush (Scirpus juncoides Roxb.); assay: Test Example 1: herbicidal effect by soil application to paddy field; settings: paddy field soil application; active ingredient 1,000 g per 1 hectare; wettable powder added dropwise to water surface the day after sowing; examined on the 21st day after application
Method in brief: (§1)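 Plants were sown in flooded (3 cm) paddy soil and evaluated for herbicidal effect 21 days after soil application in a greenhouse.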

[2] = test system: early watergrass (Echinochloa oryzicola Vasing); assay: as above; settings: paddy field soil application; active ingredient 1,000 g per 1 hectare; wettable powder added dropwise to water surface the day after sowing; examined on the 21st day after application
Method in brief: as §1

[3] = test system: heartshape false pickerelweed (Monochoria vaginalis (Burm.f.) C.Presl); assay: as above; settings: paddy field soil application; active ingredient 1,000 g per 1 hectare; wettable powder added dropwise to water surface the day after sowing; examined on the 21st day after application
Method in brief: as §1

[4] = test system: barnyardgrass (Echinochloa crus-galli (L.) P. Beauv. var. crus-galli); assay: Test Example 3: herbicidal effect by application to upland field (foliage treatment); settings: 14th day after application; for herbicidal effect (index), Barnyardgrass: foliage treatment, plants grown two weeks, 1,000 g active ingredient per hectare; for herbicidal effect, Barnyardgrass: foliage treatment, 1,000 g active ingredient per 1 hectare, greenhouse
Procedure: (§2) [table] Test Example 3 Test on Herbicidal Effect by Application to Upland Field In a 80 cm2 plastic pot, field soil was filled. Seeds of barnyardgrass (Echinochloa crus-galli (L.) P. Beauv. var. crus-galli), green foxtail (Setaria viridis (L.) P. Beauv.), velvetleaf (Abutilon theophrasti medicus), and slender amaranth (Amaranthus viridis L.) were sown and allowed to grow for two weeks in a greenhouse. Thereafter, the wettable powder prepared according to Formulation Example 1 was diluted in water and a 1,000 liter equivalent amount per 1 hectare so that the active ingredient becomes 1,000 g per 1 hectare was sprayed using a small sprayer from a top of the plants through its entire body for foliage treatment. Then, on the 14th day after the application to the plants grew in a greenhouse, the herbicidal effect was examined in accordance with a standard shown in Table 34.

[5] = test system: green foxtail (Setaria viridis (L.) P. Beauv.); assay: as above; settings: 14th day after application; for herbicidal effect (index), Green Foxtail: foliage treatment, plants grown two weeks, 1,000 g active ingredient per hectare; for herbicidal effect, Green Foxtail: foliage treatment, 1,000 g active ingredient per 1 hectare, greenhouse
Procedure: as §2

[6] = test system: slender amaranth (Amaranthus viridis L.); assay: as above; settings: 14th day after application; for herbicidal effect (index), Slender Amaranth: foliage treatment, plants grown two weeks, 1,000 g active ingredient per hectare; for herbicidal effect, Slender Amaranth: foliage treatment, 1,000 g active ingredient per 1 hectare, greenhouse
Procedure: as §2

[7] = test system: velvetleaf (Abutilon theophrasti medicus); assay: as above; settings: 14th day after application; for herbicidal effect (index), Velvetleaf: foliage treatment, plants grown two weeks, 1,000 g active ingredient per hectare; for herbicidal effect, Velvetleaf: foliage treatment, 1,000 g active ingredient per 1 hectare, greenhouse
Procedure: as §2

Row | Compound | herbicidal effect, Scirpus juncoides Roxb. [1] | herbicidal effect, Echinochloa oryzicola Vasing [2] | herbicidal effect, Monochoria vaginalis (Burm. f.) C. Presl [3] | herbicidal effect (index), Barnyardgrass [4] | herbicidal effect (index), Green Foxtail [5] | herbicidal effect (index), Slender Amaranth [6] | herbicidal effect (index), Velvetleaf [7] | herbicidal effect, Barnyardgrass [4] | herbicidal effect, Green Foxtail [5] | herbicidal effect, Slender Amaranth [6] | herbicidal effect, Velvetleaf [7]
1 | CC(C)=CCCn1c(C(F)(F)F)ccc(C(=O)C2=C(O)CCCC2=O)c1=O [I-13] | 5 (90% or more of herbicidal effect and crop phytotoxicity) | 5 (90% or more of herbicidal effect and crop phytotoxicity) | 5 (90% or more of herbicidal effect and crop phytotoxicity) | 5 (90% or more of herbicidal effect and crop phytotoxicity) | 5 (90% or more of herbicidal effect and crop phytotoxicity) | 5 (90% or more of herbicidal effect and crop phytotoxicity) | 5 (90% or more of herbicidal effect and crop phytotoxicity) | – | – | – | –
2 | O=C1CCCC(O)=C1C(=O)c1ccc(C(F)(F)F)n(CC2OCCO2)c1=O [I-138] | 5 (90% or more of herbicidal effect and crop phytotoxicity) | 5 (90% or more of herbicidal effect and crop phytotoxicity) | 5 (90% or more of herbicidal effect and crop phytotoxicity) | – | – | – | – | 5 (90% or more of herbicidal effect and crop phytotoxicity) | 4 (70 to less than 90% of herbicidal effect and crop phytotoxicity) | 5 (90% or more of herbicidal effect and crop phytotoxicity) | 5 (90% or more of herbicidal effect and crop phytotoxicity)
3 | CC(CCCCn1c(C(F)(F)F)ccc(C(=O)C2=C(O)CCCC2=O)c1=O)=C(F)F [I-28] | 4 (70 to less than 90% of herbicidal effect and crop phytotoxicity) | 5 (90% or more of herbicidal effect and crop phytotoxicity) | 5 (90% or more of herbicidal effect and crop phytotoxicity) | 5 (90% or more of herbicidal effect and crop phytotoxicity) | 5 (90% or more of herbicidal effect and crop phytotoxicity) | 5 (90% or more of herbicidal effect and crop phytotoxicity) | 5 (90% or more of herbicidal effect and crop phytotoxicity) | – | – | – | –
4 | COc1ccc(-n2c(C(F)(F)F)ccc(C(=O)C3=C(O)CCCC3=O)c2=O)cc1 [I-78] | 5 (90% or more of herbicidal effect and crop phytotoxicity) | 5 (90% or more of herbicidal effect and crop phytotoxicity) | 5 (90% or more of herbicidal effect and crop phytotoxicity) | 5 (90% or more of herbicidal effect and crop phytotoxicity) | 5 (90% or more of herbicidal effect and crop phytotoxicity) | 5 (90% or more of herbicidal effect and crop phytotoxicity) | 5 (90% or more of herbicidal effect and crop phytotoxicity) | – | – | – | –
5 | CCC(C)n1c(C(F)(F)F)ccc(C(=O)C2=C(O)C3CCC(C3)C2=O)c1=O (centres unmarked) [III-8] | 5 (90% or more of herbicidal effect and crop phytotoxicity) | 5 (90% or more of herbicidal effect and crop phytotoxicity) | 5 (90% or more of herbicidal effect and crop phytotoxicity) | – | – | – | – | 5 (90% or more of herbicidal effect and crop phytotoxicity) | 5 (90% or more of herbicidal effect and crop phytotoxicity) | 3 (50 to less than 70% of herbicidal effect and crop phytotoxicity) | 5 (90% or more of herbicidal effect and crop phytotoxicity)
6 | CSCCCn1c(C(F)(F)F)ccc(C(=O)C2=C(O)C3CCC(C3)C2=O)c1=O (centres unmarked) [III-31] | 5 (90% or more of herbicidal effect and crop phytotoxicity) | 5 (90% or more of herbicidal effect and crop phytotoxicity) | 5 (90% or more of herbicidal effect and crop phytotoxicity) | – | – | – | – | 5 (90% or more of herbicidal effect and crop phytotoxicity) | 5 (90% or more of herbicidal effect and crop phytotoxicity) | 5 (90% or more of herbicidal effect and crop phytotoxicity) | 5 (90% or more of herbicidal effect and crop phytotoxicity)
7 | COc1ccccc1COc1c(C(=O)c2ccc(C(F)(F)F)n(C)c2=O)cnn1C [IV-193] | 5 (90% or more of herbicidal effect and crop phytotoxicity) | 5 (90% or more of herbicidal effect and crop phytotoxicity) | 5 (90% or more of herbicidal effect and crop phytotoxicity) | – | – | – | – | 3 (50 to less than 70% of herbicidal effect and crop phytotoxicity) | 4 (70 to less than 90% of herbicidal effect and crop phytotoxicity) | 5 (90% or more of herbicidal effect and crop phytotoxicity) | 5 (90% or more of herbicidal effect and crop phytotoxicity)
8 | Cn1c(C(F)(F)F)ccc(C(=O)C2=C(O)CC(C)(C)CC2=O)c1=O [II-3] | 5 (90% or more of herbicidal effect and crop phytotoxicity) | 5 (90% or more of herbicidal effect and crop phytotoxicity) | 5 (90% or more of herbicidal effect and crop phytotoxicity) | – | – | – | – | 3 (50 to less than 70% of herbicidal effect and crop phytotoxicity) | 4 (70 to less than 90% of herbicidal effect and crop phytotoxicity) | 5 (90% or more of herbicidal effect and crop phytotoxicity) | 5 (90% or more of herbicidal effect and crop phytotoxicity)
9 | COCCN(C)n1c(C(F)(F)F)ccc(C(=O)C2=C(O)CCCC2=O)c1=O [I-176] | 5 (90% or more of herbicidal effect and crop phytotoxicity) | 5 (90% or more of herbicidal effect and crop phytotoxicity) | 5 (90% or more of herbicidal effect and crop phytotoxicity) | – | – | – | – | 5 (90% or more of herbicidal effect and crop phytotoxicity) | 5 (90% or more of herbicidal effect and crop phytotoxicity) | 5 (90% or more of herbicidal effect and crop phytotoxicity) | 5 (90% or more of herbicidal effect and crop phytotoxicity)
10 | CS(=O)(=O)Cn1c(C(F)(F)F)ccc(C(=O)C2=C(O)CCCC2=O)c1=O [I-47] | 5 (90% or more of herbicidal effect and crop phytotoxicity) | 5 (90% or more of herbicidal effect and crop phytotoxicity) | 5 (90% or more of herbicidal effect and crop phytotoxicity) | 5 (90% or more of herbicidal effect and crop phytotoxicity) | 4 (70 to less than 90% of herbicidal effect and crop phytotoxicity) | 5 (90% or more of herbicidal effect and crop phytotoxicity) | 5 (90% or more of herbicidal effect and crop phytotoxicity) | – | – | – | –
11 | O=C1CCCC(O)=C1C(=O)c1ccc(C(F)(F)F)n(Cc2cccc([N+](=O)[O-])c2)c1=O [I-116] | 5 (90% or more of herbicidal effect and crop phytotoxicity) | 5 (90% or more of herbicidal effect and crop phytotoxicity) | 5 (90% or more of herbicidal effect and crop phytotoxicity) | – | – | – | – | 5 (90% or more of herbicidal effect and crop phytotoxicity) | 3 (50 to less than 70% of herbicidal effect and crop phytotoxicity) | 5 (90% or more of herbicidal effect and crop phytotoxicity) | 5 (90% or more of herbicidal effect and crop phytotoxicity)
